Source: ChEMBL document CHEMBL1134164, “Antifungal activity of octyl gallate: structural criteria and mode of action” (2001)
In brackets after ≈: the same amount, converted by molar mass. Activity calls are given as the source filed them.

How the values were obtained:
Aspergillus niger [1] = test: Antifungicidal activity against Aspergillus niger was determined; type: functional
Aspergillus niger [2] = test: Inhibitory activity against Aspergillus niger was determined; type: functional
Bacillus subtilis = test: Antimicrobial activity against Bacillus subtilis was determined; type: functional
[3] = system: Corynebacterium ammoniagenes; test: Antimicrobial activity against Brevibacterium ammoniagenes was determined; type: functional
[4] = system: Corynebacterium ammoniagenes; test: Inhibitory activity against Brevibacterium ammoniagenes was determined; type: functional
Candida albicans [5] = test: Inhibitory activity against Candida albicans was determined; type: functional
Candida albicans [6] = test: Antifungicidal activity against Candida albicans was determined; type: functional
Klebsiella aerogenes [7] = test: Inhibitory activity against Enterobacter aerogenes was determined; type: functional
Escherichia coli [8] = test: Inhibitory activity against Escherichia coli was determined; type: functional
Klebsiella aerogenes [9] = test: Antimicrobial activity against Enterobacter aerogenes was determined; type: functional
Escherichia coli [10] = test: Antimicrobial activity against Escherichia coli was determined; type: functional
Micrococcus luteus [11] = test: Inhibitory activity against Micrococcus luteus was determined; type: functional
Micrococcus luteus [12] = test: Antimicrobial activity against Micrococcus luteus was determined; type: functional
Proteus vulgaris [13] = test: Antimicrobial activity against Proteus vulgaris was determined; type: functional
Pseudomonas aeruginosa [14] = test: Inhibitory activity against Pseudomonas aeruginosa was determined; type: functional
Cutibacterium acnes [15] = test: Antimicrobial activity against Propionibacterium acnes was determined; type: functional
Proteus vulgaris [16] = test: Inhibitory activity against Proteus vulgaris was determined; type: functional
Pseudomonas aeruginosa [17] = test: Antimicrobial activity against Pseudomonas aeruginosa was determined; type: functional
Salmonella enterica = test: Antimicrobial activity against Salmonella choleraesuis was determined; type: functional
Staphylococcus aureus [18] = test: Inhibitory activity against Staphylococcus aureus (MRSA) was determined; type: functional
Staphylococcus aureus [19] = test: Inhibitory activity against Staphylococcus aureus was determined; type: functional
Staphylococcus aureus [20] = test: Antimicrobial activity against Staphylococcus aureus was determined; type: functional
Streptococcus mutans [21] = test: Inhibitory activity against Streptococcus mutans was determined; type: functional
Saccharomyces cerevisiae [22] = test: Antifungicidal activity against Saccharomyces cerevisiae was determined; type: functional
Saccharomyces cerevisiae [23] = test: Inhibitory activity against Saccharomyces cerevisiae was determined; type: functional
Staphylococcus aureus [24] = test: Antimicrobial activity against Staphylococcus aureus (MRSA) was determined; type: functional
Streptococcus mutans [25] = test: Antimicrobial activity against Streptococcus mutans was determined; type: functional
Zygosaccharomyces bailii [26] = test: Antifungicidal activity against Zygosaccharomyces bailii was determined; type: functional
Cutibacterium acnes [27] = test: Inhibitory activity against Propionibacterium acnes was determined; type: functional
Zygosaccharomyces bailii [28] = test: Inhibitory activity against Zygosaccharomyces bailii was determined; type: functional
Saccharomyces cerevisiae [29] = test: Minimum fungicidal concentration against Saccharomyces cerevisiae; type: functional
Escherichia coli [30] = test: Inhibitory activity against Escherichia coli was determined
Micrococcus luteus [31] = test: Inhibitory activity against Micrococcus luteus was determined
Streptococcus mutans [32] = test: Inhibitory activity against Streptococcus mutans was determined
Staphylococcus aureus [33] = test: Inhibitory activity against Staphylococcus aureus was determined
Klebsiella aerogenes [34] = test: Inhibitory activity against Enterobacter aerogenes was determined
[35] = system: Corynebacterium ammoniagenes; test: Inhibitory activity against Brevibacterium ammoniagenes was determined
Saccharomyces cerevisiae [36] = test: Minimum fungicidal concentration against Saccharomyces cerevisiae (Inactive); type: functional, organism-based

In the case of `CCCOC(=O)c1cc(O)c(O)c(O)c1` [PROPYL GALLATE], the MFC (Aspergillus niger [1]) is reported as greater than 3200 µg/mL, the MFC (Aspergillus niger [2]) is reported as greater than 3200 µg/mL and the MBC (Bacillus subtilis) is reported as 1600 µg/mL (≈ 7540 µM). The MBC [3] was 3200 µg/mL (≈ 15100 µM), the MIC [4] was 1600 µg/mL (≈ 7540 µM) and the MFC (Candida albicans [5]) was 3200 µg/mL (≈ 15100 µM). For the same compound, the MFC (Candida albicans [6]) was greater than 3200 µg/mL, the MIC (Klebsiella aerogenes [7]) was 3200 µg/mL (≈ 15100 µM) and the MIC (Escherichia coli [8]) was 1600 µg/mL (≈ 7540 µM). It also gave an MBC (Klebsiella aerogenes [9]) greater than 3200 µg/mL, an MBC (Escherichia coli [10]) of 1600 µg/mL (≈ 7540 µM) and an MIC (Micrococcus luteus [11]) of 1600 µg/mL (≈ 7540 µM). For the same compound, the MBC (Micrococcus luteus [12]) was 3200 µg/mL (≈ 15100 µM), the MBC (Proteus vulgaris [13]) was 400 µg/mL (≈ 1890 µM) and the MIC (Pseudomonas aeruginosa [14]) was 3200 µg/mL (≈ 15100 µM). It also gave an MBC (Cutibacterium acnes [15]) of 800 µg/mL (≈ 3770 µM), an MIC (Proteus vulgaris [16]) of 400 µg/mL (≈ 1890 µM) and an MBC (Pseudomonas aeruginosa [17]) greater than 3200 µg/mL. For the same compound, the MBC (Salmonella enterica) was greater than 3200 µg/mL, the MIC (Staphylococcus aureus [18]) was 1600 µg/mL (≈ 7540 µM) and the MIC (Staphylococcus aureus [19]) was 1600 µg/mL (≈ 7540 µM). For the same compound, the MBC (Staphylococcus aureus [20]) was 3200 µg/mL (≈ 15100 µM), the MIC (Streptococcus mutans [21]) was 400 µg/mL (≈ 1890 µM) and the MFC (Saccharomyces cerevisiae [22]) was greater than 3200 µg/mL. For the same compound, the MFC (Saccharomyces cerevisiae [23]) was 3200 µg/mL (≈ 15100 µM), the MBC (Staphylococcus aureus [24]) was 3200 µg/mL (≈ 15100 µM) and the MBC (Streptococcus mutans [25]) was 800 µg/mL (≈ 3770 µM). It also gave an MFC (Zygosaccharomyces bailii [26]) greater than 3200 µg/mL, an MIC (Cutibacterium acnes [27]) of 800 µg/mL (≈ 3770 µM) and an MIC (Zygosaccharomyces bailii [28]) greater than 3200 µg/mL.

With `CCCCCCCCCC(=O)Oc1ccc(O)c(O)c1` the MFC (Saccharomyces cerevisiae [29]) was 50 µg/mL (≈ 178 µM).

`CC(C)=CCC/C(C)=C/COC(=O)c1cc(O)c(O)c(O)c1` [Geranyl gallate] was tested, and the MFC (Saccharomyces cerevisiae [29]) was 50 µg/mL (≈ 163 µM).

`CCCCCCCCCCCCOC(=O)c1cc(O)c(O)c(O)c1` [DODECYL GALLATE] showed an MFC (Aspergillus niger [1]) greater than 400 µg/mL, an MFC (Aspergillus niger [2]) greater than 400 µg/mL and an MBC (Bacillus subtilis) of 25 µg/mL (≈ 73.9 µM). The MBC [3] was 25 µg/mL (≈ 73.9 µM), the MFC (Candida albicans [5]) was greater than 400 µg/mL and the MFC (Candida albicans [6]) was greater than 400 µg/mL. It also gave an MBC (Klebsiella aerogenes [9]) greater than 800 µg/mL, an MBC (Escherichia coli [10]) greater than 800 µg/mL and an MBC (Micrococcus luteus [12]) of 25 µg/mL (≈ 73.9 µM). For the same compound, the MBC (Proteus vulgaris [13]) was greater than 800 µg/mL, the MIC (Pseudomonas aeruginosa [14]) was greater than 800 µg/mL and the MBC (Cutibacterium acnes [15]) was 6.25 µg/mL (≈ 18.5 µM). For the same compound, the MIC (Proteus vulgaris [16]) was greater than 800 µg/mL, the MBC (Pseudomonas aeruginosa [17]) was greater than 800 µg/mL and the MBC (Salmonella enterica) was 50 µg/mL (≈ 148 µM). It also gave an MIC (Staphylococcus aureus [18]) of 12.5 µg/mL (≈ 36.9 µM), an MBC (Staphylococcus aureus [20]) of 25 µg/mL (≈ 73.9 µM) and an MFC (Saccharomyces cerevisiae [22]) greater than 1600 µg/mL. It also gave an MFC (Saccharomyces cerevisiae [23]) greater than 1600 µg/mL, an MBC (Staphylococcus aureus [24]) of 25 µg/mL (≈ 73.9 µM) and an MBC (Streptococcus mutans [25]) of 100 µg/mL (≈ 295 µM). The MFC (Zygosaccharomyces bailii [26]) was greater than 1600 µg/mL, the MIC (Cutibacterium acnes [27]) was 6.25 µg/mL (≈ 18.5 µM) and the MIC (Zygosaccharomyces bailii [28]) was greater than 1600 µg/mL. The MIC (Escherichia coli [30]) was greater than 800 µg/mL, the MIC (Micrococcus luteus [31]) was 12.5 µg/mL (≈ 36.9 µM) and the MIC (Streptococcus mutans [32]) was 100 µg/mL (≈ 295 µM). The MIC (Staphylococcus aureus [33]) was 12.5 µg/mL (≈ 36.9 µM), the MIC (Klebsiella aerogenes [34]) was greater than 800 µg/mL and the MIC [35] was 12.5 µg/mL (≈ 36.9 µM).

Work on `CCCCCCCCOC(=O)c1cc(O)c(O)c(O)c1` [OCTYL_GALLATE] yielded an MFC (Aspergillus niger [1]) of 100 µg/mL (≈ 354 µM), an MFC (Aspergillus niger [2]) of 50 µg/mL (≈ 177 µM) and an MBC (Bacillus subtilis) of 25 µg/mL (≈ 88.5 µM). For the same compound, the MBC [3] was 50 µg/mL (≈ 177 µM), the MIC [4] was 25 µg/mL (≈ 88.5 µM) and the MFC (Candida albicans [5]) was 25 µg/mL (≈ 88.5 µM). For the same compound, the MFC (Candida albicans [6]) was 25 µg/mL (≈ 88.5 µM), the MIC (Klebsiella aerogenes [7]) was greater than 800 µg/mL and the MIC (Escherichia coli [8]) was greater than 800 µg/mL. The MBC (Klebsiella aerogenes [9]) was greater than 800 µg/mL, the MBC (Escherichia coli [10]) was greater than 800 µg/mL and the MIC (Micrococcus luteus [11]) was 12.5 µg/mL (≈ 44.3 µM). For the same compound, the MBC (Micrococcus luteus [12]) was 25 µg/mL (≈ 88.5 µM), the MBC (Proteus vulgaris [13]) was 50 µg/mL (≈ 177 µM) and the MIC (Pseudomonas aeruginosa [14]) was greater than 800 µg/mL. The MBC (Cutibacterium acnes [15]) was 25 µg/mL (≈ 88.5 µM), the MIC (Proteus vulgaris [16]) was 25 µg/mL (≈ 88.5 µM) and the MBC (Pseudomonas aeruginosa [17]) was greater than 800 µg/mL. The MBC (Salmonella enterica) was 12.5 µg/mL (≈ 44.3 µM), the MIC (Staphylococcus aureus [18]) was 25 µg/mL (≈ 88.5 µM) and the MIC (Staphylococcus aureus [19]) was 25 µg/mL (≈ 88.5 µM). It also gave an MBC (Staphylococcus aureus [20]) of 50 µg/mL (≈ 177 µM), an MIC (Streptococcus mutans [21]) of 50 µg/mL (≈ 177 µM) and an MFC (Saccharomyces cerevisiae [22]) of 25 µg/mL (≈ 88.5 µM). It also gave an MFC (Saccharomyces cerevisiae [23]) of 25 µg/mL (≈ 88.5 µM), an MBC (Staphylococcus aureus [24]) of 50 µg/mL (≈ 177 µM) and an MBC (Streptococcus mutans [25]) of 50 µg/mL (≈ 177 µM). It also gave an MFC (Zygosaccharomyces bailii [26]) of 50 µg/mL (≈ 177 µM), an MIC (Cutibacterium acnes [27]) of 25 µg/mL (≈ 88.5 µM) and an MIC (Zygosaccharomyces bailii [28]) of 50 µg/mL (≈ 177 µM).

For `CCCCCCCCOC(=O)c1cccc(O)c1O`, the MIC (Saccharomyces cerevisiae [36]) was “inactive”.

`CCCCCCCOC(=O)/C=C/c1ccc(O)c(O)c1` was tested, and the MFC (Saccharomyces cerevisiae [29]) was 50 µg/mL (≈ 180 µM).
